Cn1cc[n+](CCCC[n+]2ccn(C)c2)c1.F[P-](F)(F)(F)(F)F.F[P-](F)(F)(F)(F)F
Details | solubility (mole fraction)
in 2-butanone, 283.15 K | 0.00838
in 2-butanone, 288.15 K | 0.00936
in 2-butanone, 294.15 K | 0.0114
in 2-butanone, 299.15 K | 0.014
in 2-butanone, 304.15 K | 0.0178
in 2-butanone, 309.15 K | 0.0235
in 2-butanone, 315.15 K | 0.0349
in 2-butanone, 320.15 K | 0.0496
in 2-butanone, 325.15 K | 0.0728
in acetophenone, 299.65 K | 0.00127
in acetophenone, 303.65 K | 0.00198
in acetophenone, 307.35 K | 0.00285
in acetophenone, 313.15 K | 0.00472
in acetophenone, 318.15 K | 0.00677
in acetophenone, 323.15 K | 0.00919
in acetophenone, 328.15 K | 0.0117
in acetophenone, 332.15 K | 0.0137
in acetylacetone, 283.15 K | 0.00252
in acetylacetone, 288.15 K | 0.0026
in acetylacetone, 293.15 K | 0.00295
in acetylacetone, 297.45 K | 0.00352
in acetylacetone, 302.65 K | 0.00473
in acetylacetone, 309.15 K | 0.00768
in acetylacetone, 314.15 K | 0.0121
in acetylacetone, 320.15 K | 0.0227
in acetylacetone, 325.15 K | 0.0409
in acetylacetone, 330.15 K | 0.0784
in cyclohexanone, 283.15 K | 0.000563
in cyclohexanone, 288.15 K | 0.0009
in cyclohexanone, 293.15 K | 0.00138
in cyclohexanone, 298.35 K | 0.00206
in cyclohexanone, 302.15 K | 0.00271
in cyclohexanone, 308.65 K | 0.0041
in cyclohexanone, 313.15 K | 0.00529
in cyclohexanone, 318.25 K | 0.00688
in cyclohexanone, 323.15 K | 0.00857
in cyclohexanone, 328.15 K | 0.0105
in cyclohexanone, 333.15 K | 0.0124
in water, 283.15 K | 9.5e-05
in water, 288.45 K | 0.000124
in water, 293.15 K | 0.000156
in water, 298.15 K | 0.000203
in water, 303.65 K | 0.000274
in water, 308.15 K | 0.000348
in water, 313.15 K | 0.000456
in water, 318.35 K | 0.000608
in water, 323.15 K | 0.00079
in water, 328.15 K | 0.00105
in water, 333.15 K | 0.00138

Reference: BigSolDB 2.1
